Experimental data published in article PMC9329436, “Optimization of the 4-anilinoquin(az)oline scaffold as epidermal growth factor receptor (EGFR) inhibitors for chordoma utilizing a toxicology profiling assay platform” (Scientific Reports, 2022).
Where two headings read alike, the source gives them in different places.

Columns and labels:
Assay type in all cases: biochemical
[1] = biological target: 320 wild-type protein kinases (Homo sapiens, UniProt P27037); details: ACV-R2A, singlicate
Description: (§1) Table S4. Profiling of two compounds at two concentrations against 320 wild-type protein kinases; singlicate measurement; Residual activities (% of control).

[2] = biological target: 320 wild-type protein kinases (Homo sapiens, UniProt P09769); details: FGR, singlicate
320 wild-type protein kinases (Homo sapiens, UniProt P09769), sequence (P09769 whole entry): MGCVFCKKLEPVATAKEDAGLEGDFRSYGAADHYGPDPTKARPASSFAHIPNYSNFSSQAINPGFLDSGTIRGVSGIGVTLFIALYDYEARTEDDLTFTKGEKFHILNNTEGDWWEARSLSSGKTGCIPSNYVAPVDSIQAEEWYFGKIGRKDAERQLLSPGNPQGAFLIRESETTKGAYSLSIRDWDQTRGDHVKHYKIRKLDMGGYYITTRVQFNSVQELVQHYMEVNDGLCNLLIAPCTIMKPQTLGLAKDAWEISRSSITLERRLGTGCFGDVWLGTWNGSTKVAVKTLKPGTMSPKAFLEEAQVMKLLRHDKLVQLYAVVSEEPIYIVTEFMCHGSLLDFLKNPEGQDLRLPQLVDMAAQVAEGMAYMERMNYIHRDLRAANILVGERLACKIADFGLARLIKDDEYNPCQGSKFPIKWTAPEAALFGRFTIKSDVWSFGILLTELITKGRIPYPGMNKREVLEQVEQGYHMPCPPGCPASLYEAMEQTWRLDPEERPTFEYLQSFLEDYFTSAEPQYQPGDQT
Description: as §1

[3] = biological target: 320 wild-type protein kinases (Homo sapiens, UniProt Q15759); details: p38-beta, singlicate
320 wild-type protein kinases (Homo sapiens, UniProt Q15759), sequence (Q15759 whole entry): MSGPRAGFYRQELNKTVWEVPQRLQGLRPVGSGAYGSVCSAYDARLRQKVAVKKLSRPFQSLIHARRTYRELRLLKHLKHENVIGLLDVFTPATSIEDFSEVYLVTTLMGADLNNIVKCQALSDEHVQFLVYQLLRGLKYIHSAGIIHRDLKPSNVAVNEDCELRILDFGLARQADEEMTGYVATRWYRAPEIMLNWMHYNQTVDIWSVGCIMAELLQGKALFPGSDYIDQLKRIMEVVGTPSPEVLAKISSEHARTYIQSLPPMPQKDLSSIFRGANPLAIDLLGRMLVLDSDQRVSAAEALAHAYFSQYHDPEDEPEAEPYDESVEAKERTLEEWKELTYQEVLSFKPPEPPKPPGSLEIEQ
Description: as §1

[4] = biological target: T1, 320 wild-type protein kinases (Homo sapiens, UniProt Q92630); details: singlicate
T1 sequence (Q92630 1-601): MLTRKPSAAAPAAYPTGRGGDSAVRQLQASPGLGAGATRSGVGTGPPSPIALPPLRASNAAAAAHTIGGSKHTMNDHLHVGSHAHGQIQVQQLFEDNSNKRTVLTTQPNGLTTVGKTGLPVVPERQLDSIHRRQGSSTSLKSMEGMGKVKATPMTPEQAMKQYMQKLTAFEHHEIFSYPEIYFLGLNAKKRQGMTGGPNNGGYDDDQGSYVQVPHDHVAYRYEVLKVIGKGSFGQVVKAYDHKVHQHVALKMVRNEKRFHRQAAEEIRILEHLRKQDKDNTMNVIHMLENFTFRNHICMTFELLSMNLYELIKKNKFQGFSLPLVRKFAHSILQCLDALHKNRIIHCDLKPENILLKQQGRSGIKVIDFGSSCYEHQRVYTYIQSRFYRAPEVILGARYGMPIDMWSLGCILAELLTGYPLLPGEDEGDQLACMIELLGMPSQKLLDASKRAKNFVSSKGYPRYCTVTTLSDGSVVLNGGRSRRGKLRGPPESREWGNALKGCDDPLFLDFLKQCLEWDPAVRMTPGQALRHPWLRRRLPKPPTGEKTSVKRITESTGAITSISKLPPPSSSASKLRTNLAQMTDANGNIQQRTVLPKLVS
Description: as §1

[5] = biological target: T2, 320 wild-type protein kinases (Homo sapiens, UniProt O94806); details: PKC-nu, singlicate
T2 sequence (O94806 1-890): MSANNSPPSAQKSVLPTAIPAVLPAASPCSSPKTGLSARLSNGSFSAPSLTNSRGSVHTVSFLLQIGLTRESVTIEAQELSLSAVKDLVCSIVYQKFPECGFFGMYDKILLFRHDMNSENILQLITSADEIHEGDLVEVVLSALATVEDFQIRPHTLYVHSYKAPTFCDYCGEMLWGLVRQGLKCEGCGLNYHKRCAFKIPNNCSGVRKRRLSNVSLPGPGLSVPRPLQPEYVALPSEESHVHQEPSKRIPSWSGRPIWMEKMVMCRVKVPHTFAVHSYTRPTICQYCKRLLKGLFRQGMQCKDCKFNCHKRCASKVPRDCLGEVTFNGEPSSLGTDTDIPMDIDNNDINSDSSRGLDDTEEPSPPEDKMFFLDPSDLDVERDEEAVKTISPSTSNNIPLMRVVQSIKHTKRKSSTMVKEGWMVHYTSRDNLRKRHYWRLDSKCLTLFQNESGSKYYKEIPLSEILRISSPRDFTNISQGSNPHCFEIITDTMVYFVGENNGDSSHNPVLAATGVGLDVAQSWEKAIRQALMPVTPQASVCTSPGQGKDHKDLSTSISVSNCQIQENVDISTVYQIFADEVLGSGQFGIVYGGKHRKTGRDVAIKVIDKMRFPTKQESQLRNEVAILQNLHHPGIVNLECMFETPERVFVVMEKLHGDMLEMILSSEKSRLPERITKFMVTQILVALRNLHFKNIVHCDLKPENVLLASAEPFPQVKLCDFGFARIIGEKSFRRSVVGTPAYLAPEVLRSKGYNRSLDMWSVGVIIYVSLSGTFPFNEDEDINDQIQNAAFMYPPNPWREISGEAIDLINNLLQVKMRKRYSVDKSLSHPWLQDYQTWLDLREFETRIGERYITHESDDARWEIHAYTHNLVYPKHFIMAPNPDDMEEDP
Description: as §1

[6] = biological target: 320 wild-type protein kinases (Homo sapiens, UniProt Q13882); details: BRK, singlicate
320 wild-type protein kinases (Homo sapiens, UniProt Q13882), sequence (Q13882 whole entry): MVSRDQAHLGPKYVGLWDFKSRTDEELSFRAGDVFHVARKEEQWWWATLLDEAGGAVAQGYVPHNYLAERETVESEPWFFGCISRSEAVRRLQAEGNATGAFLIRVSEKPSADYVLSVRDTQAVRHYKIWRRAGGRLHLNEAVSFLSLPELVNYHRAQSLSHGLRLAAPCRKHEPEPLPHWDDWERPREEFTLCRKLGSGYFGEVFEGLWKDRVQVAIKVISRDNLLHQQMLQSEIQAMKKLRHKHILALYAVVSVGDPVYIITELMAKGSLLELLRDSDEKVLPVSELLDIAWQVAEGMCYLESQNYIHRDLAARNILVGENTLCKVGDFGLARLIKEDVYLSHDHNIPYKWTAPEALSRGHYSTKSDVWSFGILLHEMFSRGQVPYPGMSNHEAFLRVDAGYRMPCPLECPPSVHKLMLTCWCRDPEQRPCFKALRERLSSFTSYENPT
Description: as §1

[7] = biological target: T3, 320 wild-type protein kinases (Homo sapiens, UniProt Q12851); details: singlicate
T3 sequence (Q12851 1-820): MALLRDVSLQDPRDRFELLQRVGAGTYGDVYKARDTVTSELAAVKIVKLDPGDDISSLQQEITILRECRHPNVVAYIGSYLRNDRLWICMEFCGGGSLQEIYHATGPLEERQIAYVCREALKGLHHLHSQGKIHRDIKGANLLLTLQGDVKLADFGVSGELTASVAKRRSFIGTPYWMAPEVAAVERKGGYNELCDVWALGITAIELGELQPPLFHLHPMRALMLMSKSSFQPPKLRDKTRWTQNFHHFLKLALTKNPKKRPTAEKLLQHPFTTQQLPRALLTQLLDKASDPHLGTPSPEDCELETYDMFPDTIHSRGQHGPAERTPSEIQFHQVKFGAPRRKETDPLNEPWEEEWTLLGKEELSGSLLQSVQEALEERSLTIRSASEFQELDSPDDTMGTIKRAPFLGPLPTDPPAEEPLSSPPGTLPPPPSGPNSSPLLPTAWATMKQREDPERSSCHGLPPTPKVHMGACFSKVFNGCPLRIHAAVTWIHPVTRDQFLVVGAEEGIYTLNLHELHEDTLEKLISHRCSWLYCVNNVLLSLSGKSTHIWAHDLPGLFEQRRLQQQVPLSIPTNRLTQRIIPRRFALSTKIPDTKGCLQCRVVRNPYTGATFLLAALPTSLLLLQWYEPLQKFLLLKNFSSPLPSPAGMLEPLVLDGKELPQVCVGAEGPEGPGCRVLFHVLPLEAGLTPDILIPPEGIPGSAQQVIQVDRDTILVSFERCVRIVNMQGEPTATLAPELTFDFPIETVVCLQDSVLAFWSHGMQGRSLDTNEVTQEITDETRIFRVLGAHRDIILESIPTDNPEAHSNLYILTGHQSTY
Description: as §1

[8] = biological target: 320 wild-type protein kinases (Homo sapiens, UniProt P36894); details: BMPR1A, singlicate
320 wild-type protein kinases (Homo sapiens, UniProt P36894), sequence (P36894 24-532): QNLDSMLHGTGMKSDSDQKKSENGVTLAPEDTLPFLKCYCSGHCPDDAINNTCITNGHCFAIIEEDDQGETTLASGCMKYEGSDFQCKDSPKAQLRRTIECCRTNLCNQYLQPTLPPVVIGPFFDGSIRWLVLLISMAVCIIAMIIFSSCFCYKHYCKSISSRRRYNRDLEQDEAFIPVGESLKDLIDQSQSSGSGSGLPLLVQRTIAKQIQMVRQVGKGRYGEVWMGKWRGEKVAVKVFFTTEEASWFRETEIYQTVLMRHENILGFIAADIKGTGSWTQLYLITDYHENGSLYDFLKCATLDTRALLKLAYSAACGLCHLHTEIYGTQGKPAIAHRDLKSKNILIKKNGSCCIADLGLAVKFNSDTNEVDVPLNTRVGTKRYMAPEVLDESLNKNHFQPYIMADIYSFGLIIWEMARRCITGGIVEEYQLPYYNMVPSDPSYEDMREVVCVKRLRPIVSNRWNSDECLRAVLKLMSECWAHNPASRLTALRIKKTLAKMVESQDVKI
Description: as §1

320 wild-type protein kinases (Homo sapiens, UniProt P27037), sequence (P27037 20-513): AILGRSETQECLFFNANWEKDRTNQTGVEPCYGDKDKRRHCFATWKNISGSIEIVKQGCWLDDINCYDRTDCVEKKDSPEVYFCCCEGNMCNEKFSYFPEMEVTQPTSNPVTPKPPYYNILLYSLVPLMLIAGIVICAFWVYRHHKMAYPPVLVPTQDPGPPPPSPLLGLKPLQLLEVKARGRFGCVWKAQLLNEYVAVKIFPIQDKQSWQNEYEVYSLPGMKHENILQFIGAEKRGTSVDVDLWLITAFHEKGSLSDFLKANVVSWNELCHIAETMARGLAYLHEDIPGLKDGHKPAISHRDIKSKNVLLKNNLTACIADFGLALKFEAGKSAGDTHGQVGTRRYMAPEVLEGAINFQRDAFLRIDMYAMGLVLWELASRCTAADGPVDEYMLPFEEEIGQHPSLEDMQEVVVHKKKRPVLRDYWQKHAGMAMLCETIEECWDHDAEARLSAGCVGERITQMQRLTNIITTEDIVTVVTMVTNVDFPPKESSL

Structure (SMILES) | Residual activity ([1]; 1.0E-06 M) | Residual activity ([1]; 1.0E-07 M) | Residual activity ([2]; 1.0E-06 M) | Residual activity ([2]; 1.0E-07 M) | Residual activity ([3]; 1.0E-06 M) | Residual activity ([3]; 1.0E-07 M) | Residual activity ([4]; DYRK2, 1.0E-06 M) | Residual activity ([4]; DYRK2, 1.0E-07 M) | Residual activity ([5]; 1.0E-06 M) | Residual activity ([5]; 1.0E-07 M) | Residual activity ([6]; 1.0E-06 M) | Residual activity ([6]; 1.0E-07 M) | Residual activity ([7]; MAP4K2, 1.0E-06 M) | Residual activity ([7]; MAP4K2, 1.0E-07 M) | Residual activity ([8]; 1.0E-06 M) | Residual activity ([8]; 1.0E-07 M)
C#Cc1cc(Nc2ncnc3cc(I)ccc23)ccc1Cl [Compound 41] | 92 % of control | 96 % of control | 114 % of control | 129 % of control | 84 % of control | 82 % of control | 61 % of control | 84 % of control | 86 % of control | 87 % of control | 110 % of control | 100 % of control | 94 % of control | 99 % of control | 96 % of control | 109 % of control
C#Cc1cc(Nc2ncnc3cc(OC)c(OC)cc23)ccc1Cl [Compound 45] | 96 % of control | 101 % of control | 94 % of control | 125 % of control | 87 % of control | 90 % of control | 71 % of control | 89 % of control | 84 % of control | 99 % of control | 70 % of control | 96 % of control | 113 % of control | 105 % of control | 110 % of control | 102 % of control
